From patent US20040077674A1, “Mappicine analogs, intermediates in the synthesis of mappicine analogs and methods of synthesis of mappicine analogs” (priority 2002, published 2004)
Like-named read-outs stand apart in the source and are kept apart here.

Legend:
[1] = test system: cells; details: cited from earlier work
[2] = molecular target: T1, RNase H activity of HIV reverse transcriptase (Human immunodeficiency virus type 1 group M subtype B, UniProt P03366); details: read-out: IC50 of RNase H inhibition; literature (Borkow et al. 1997); cited from earlier work
T1 construct: 2.5 nM of the p51/p66 RT heterodimer in the assay; made in house

[3] = test system: HIV-1 replication; details: published RNase H inhibitors; cited from earlier work
[4] = molecular target: T1, RNase H activity of HIV reverse transcriptase; assay: Fluorescence (FRET)-based RNase H assay of HIV reverse transcriptase; assay type: biochemical, HIV-1
[5] = test system: mutant HIV-1 strain with K103N+Y181C in the viral reverse transcriptase; assay: Replication of NNRTI-resistant mutant HIV-1 strain K103N+Y181C in cultured cells; assay type: cell-based; details: K103N+Y181C mutant HIV-1; read-out: EC50 of inhibition of replication of resistant virus strain
[6] = test system: mutant HIV-1 strain with V106A+Y181C in the viral reverse transcriptase; assay: Replication of NNRTI-resistant mutant HIV-1 strain V106A+Y181C in cultured cells; assay type: cell-based; details: V106A+Y181C mutant HIV-1; read-out: EC50 of inhibition of replication of resistant virus strain
[7] = test system: HIV-1 replication; assay: HIV-1 replication in cultured cells (cell culture viral growth assay); assay type: cell-based; details: wild-type HIV-1 in cultured cells; read-out: EC50 of inhibition of replication of wild-type HIV-1
[8] = test system: cells; details: cited from earlier work; remark: listed apart in the source

Structure (SMILES)	toxicity to cells (in words) [1]	IC50 [2] [nM]	antiviral activity against HIV-1 replication in cultured cells (in words) [3]	IC50 ([4]; in vitro, read-out: IC50 (μM) against HIV RNase H in vitro) [µM]	EC50 [5] [nM]	% inhibition of RNase H at 20 μM ([4]; 20 μM inhibitor concentration) [%]	inhibitory activity against HIV-1 RNase H (in words) ([4]; dose-response curves FIG. 13, 10 μM or 20 μM screens)	EC50 [6] [nM]	EC50 [7] [nM]	ability to penetrate cells (in words) [8]
CC(C)(C)c1ccc(C(=O)NN=Cc2c(O)ccc3ccccc23)cc1 [BBNH, N-4-(t-butylbenzoyl)-2-hydroxy-1-naphthaldehyde hydrazone]	highly toxic to cells	~2000	demonstrated antiviral activity against HIV-1 replication in cultured cells	1.8						
CCCc1c2c(nc3ccc(Cl)cc13)-c1cc(C(O)CCC3CCCCC3)c(C)c(=O)n1C2 (centres unmarked) [Compound 7.5.6]					3500	100	possess inhibitory activity against HIV-1 RNase H	4200	~3000	
O=C(O)C(=NNc1ccc(Cl)cc1)C(=O)O [CPHM, 2-[(4-chlorophenyl)-hydrazono]-malonic acid]			cannot inhibit HIV-1 replication in cultured cells							Neither CPHM nor BTOBA are able to penetrate cells
